Consider three molecules from US12522635B2, “Amyloid peptide variants” (Loyola Marymount University, priority 2019, dated 2026).

“Also recorded” adds a separate entry of the source. Where a SMILES comes first, the peptide text is derived from it. Bridges are numbered along the chain shown (N, C = ends).

In series [1] the target is T1, human IAPP (hIAPP) (Homo sapiens, UniProt P10997).
T1 construct: This 37 amino acid polypeptide is co-secreted from pancreatic β-islet cells with insulin
T1 sequence (P10997 34-70 limits assumed): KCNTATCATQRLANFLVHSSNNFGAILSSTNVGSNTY
Put plainly: Thioflavin T binding assay of hIAPP aggregation when mixed with IAPP peptides. The series is classed as biochemical. As to conditions: peptide mixed with hIAPP; no single assay (thioflavin T and AFM). In a few lines:
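37 μM hIAPP plus 75 μM animal IAPP (2:1) in 20 mM Tris pH 7.4, shaken 200 rpm at 37 °C for 40 min. Aliquots were mixed into 50.0 μM thioflavin T and emission read at 488 nm, with fibrils checked by AFM. Significance vs hIAPP alone was determined by t-test.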

Series [2] has as its target T1, human IAPP (hIAPP). Put plainly: Atomic force microscopy (AFM) of hIAPP fibril formation when mixed with IAPP peptides. The class given is biochemical. The note with it: for inhibition of hIAPP fibril formation, AFM: 37 μM hIAPP and 75 μM peptide, 37° C. with shaking for 40 minutes. In a few lines: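 hIAPP (37–40 μM) alone or mixed with other IAPP peptides (equimolar or about 2:1 peptide:hIAPP) was shaken at 37° C for 30–40 minutes. Samples deposited on mica, washed with water, dried and imaged by AFM in A/C mode; scans […], raw unflattened data.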

Another series deals with RIN-m cells. As to the kind of experiment: MTT viability assay, peptide alone or mixed with hIAPP. As to conditions: for rescue / protection of cells from hIAPP toxicity (words): hIAPP mixed with peptide 1:1, MTT assay. The class given is cell-based. In a few lines:
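RIN-m cells were exposed to hIAPP alone, each animal IAPP peptide alone, or hIAPP mixed with an animal IAPP for 46 h at 37° C in RPMI-1640 with 10% FBS. Viability by MTT reduction (2 h), formazan solubilized in SDS/DMF and read at 570 nm, relative to untreated cells as 100%.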

A short description of series [3]: AFM of peptide alone (self-aggregation / fibril formation). The class given is physicochemical. As to conditions: for aggregation propensity relative to comparator: comparison of pramlintide with the IAPP peptides. As to the method:
Samples labeled with hIAPP contained 40 μM hIAPP. The sample with pramlintide and hIAPP contained a 2:1 molar mixture (80 μM Pramlintide mixed with 40 μM hIAPP). The samples with raccoon IAPP and Pramlintide alone contained 40 μM of the indicated peptides. Each sample was incubated for 40 minutes at 37° C. with shaking; conditions known to promote hIAPP amyloid formation. All scans show raw data with no flattening and are […].
Samples of hIAPP with or without animal IAPP were prepared as described in Example 1 and were then incubated with shaking at 37° C. for 40 minutes. After this incubation, 17 μL of each sample was deposited onto freshly cleaved mica. Samples were incubated for 5 minutes at room temperature before washing with 200 μL sterile water. After drying, the samples were scanned using an MFP-3D atomic force microscope (Asylum Research) set on A/C mode and a 240 m silicon cantilever (Olympus).
Many of the animal IAPP variants are known to likewise form fibrils and yield amyloid-plaques when scanned via AFM. […] This is in spite of the fact that all of these IAPP peptides (except polar bear IAPP) are known to aggregate and form fibrils themselves under these or similar conditions

For series [4], the target named is T1, human IAPP (hIAPP). Put plainly: hIAPP aggregation in the presence of human insulin. The class given is biochemical.
For series [5] the following is noted: following injection; Wijesekara et al. 2015; cited from earlier work.
A further series deals with T2, human IAPP (Homo sapiens, UniProt P10997).
T2 sequence (P10997 34-70 limits assumed): T1 sequence (P10997 34-70 limits assumed)
As to conditions: cited from earlier work.

Turning to `CC[C@H](C)[C@H](NC(=O)[C@H](C)NC(=O)CNC(=O)[C@H](CC(C)C)NC(=O)[C@H](CC(N)=O)NC(=O)[C@H](CC(N)=O)NC(=O)[C@H](CO)NC(=O)[C@H](CO)NC(=O)[C@H](CCCNC(=N)N)NC(=O)[C@H](CC(C)C)NC(=O)[C@H](CC(C)C)NC(=O)[C@H](Cc1ccccc1)NC(=O)[C@H](CC(N)=O)NC(=O)[C@H](C)NC(=O)[C@H](CC(C)C)NC(=O)[C@H](CCCNC(=N)N)NC(=O)[C@H](CCC(N)=O)NC(=O)[C@@H](NC(=O)[C@@H](NC(=O)[C@@H]1CSSC[C@H](NC(=O)[C@@H](N)CCCCN)C(=O)N[C@@H](CC(N)=O)C(=O)N[C@@H]([C@@H](C)O)C(=O)N[C@@H](C)C(=O)N[C@@H]([C@@H](C)O)C(=O)N1)C(C)C)[C@@H](C)O)C(=O)N[C@@H](CC(C)C)C(=O)N[C@@H](CO)C(=O)N1CCC[C@H]1C(=O)N[C@H](C(=O)N[C@@H](CC(N)=O)C(=O)N[C@H](C(=O)NCC(=O)N[C@@H](CO)C(=O)N[C@@H](CC(N)=O)C(=O)N[C@H](C(=O)N[C@@H](Cc1ccc(O)cc1)C(N)=O)[C@@H](C)O)C(C)C)[C@@H](C)O` [raccoon IAPP] (H-KCNTATCVTQRLANFLLRSSNNLGAILSPTNVGSNTY-NH2; disulfide 2-7 (inferred); N-terminus and C-terminus assumed), the “inhibition of hIAPP aggregation (summary statement)” value on human IAPP (hIAPP) [1] is listed as “able to inhibit such aggregation; also recorded: inhibit aggregate formation by hIAPP”. At human IAPP (hIAPP) [2], the “inhibition of hIAPP fibril formation, AFM” value is given as “significant ability to prevent fiber formation”. At human IAPP (hIAPP) [2] (40 μM hIAPP, pramlintide 80 μM (2:1), 40 minutes at 37° C. with shaking), the “prevention of hIAPP aggregation, AFM (FIG. 5)” value is reported as “prevented hIAPP from aggregating”. In addition, the “rescue / protection of cells from hIAPP toxicity (words)” value with RIN-m cells is listed as “protected the RIN-m cells from the toxic effects of hIAPP; also recorded: significant increase in cell viability; also recorded: rescue living cells from the toxic effects of hIAPP”. Moreover, the “toxicity of peptide to cells” value with RIN-m cells (peptide alone, MTT assay, pancreatic (RIN-m) cells) is recorded as “some cellular toxicity”. For the same molecule, the “aggregation propensity relative to comparator” value in series [3] is recorded as “less aggregation-prone than Pramlintide”. In addition, the “aggregation / fibril formation of peptide alone, AFM” value in series [3] (peptide alone, incubated 40 minutes at 37° C. with shaking) is on record as “did not aggregate”. At human IAPP (hIAPP) [4], the “prevention of hIAPP aggregation in the presence of human insulin” value is on record as “prevent hIAPP aggregation in the presence of human insulin”.

`CC[C@H](C)[C@H](NC(=O)[C@H](C)NC(=O)CNC(=O)[C@@H](NC(=O)[C@H](CC(N)=O)NC(=O)[C@H](CO)NC(=O)[C@H](CO)NC(=O)[C@H](CO)NC(=O)[C@H](CCCNC(=N)N)NC(=O)[C@@H](NC(=O)[C@H](CC(C)C)NC(=O)[C@H](Cc1ccccc1)NC(=O)[C@H](CC(=O)O)NC(=O)[C@H](C)NC(=O)[C@H](CC(C)C)NC(=O)[C@H](CCCNC(=N)N)NC(=O)[C@H](CCC(N)=O)NC(=O)[C@@H](NC(=O)[C@@H](NC(=O)[C@@H]1CSSC[C@H](NC(=O)[C@@H](N)CCCCN)C(=O)N[C@@H](CC(N)=O)C(=O)N[C@@H]([C@@H](C)O)C(=O)N[C@@H](C)C(=O)N[C@@H]([C@@H](C)O)C(=O)N1)C(C)C)[C@@H](C)O)C(C)C)[C@@H](C)CC)C(=O)N[C@@H](Cc1ccc(O)cc1)C(=O)N[C@@H](CO)C(=O)N1CCC[C@H]1C(=O)N[C@H](C(=O)N[C@@H](CC(N)=O)C(=O)N[C@H](C(=O)NCC(=O)N[C@@H](CO)C(=O)N[C@@H](CC(N)=O)C(=O)N[C@H](C(=O)N[C@@H](Cc1ccc(O)cc1)C(N)=O)[C@@H](C)O)C(C)C)[C@@H](C)O` [chicken IAPP] (H-KCNTATCVTQRLADFLVRSSSNIGAIYSPTNVGSNTY-NH2; disulfide 2-7 (inferred); N-terminus and C-terminus assumed): at human IAPP (hIAPP) [1], the “inhibition of hIAPP aggregation (summary statement)” value is listed as “able to inhibit such aggregation; also recorded: inhibit aggregate formation by hIAPP”. Further, the “inhibition of hIAPP fibril formation, AFM” value on human IAPP (hIAPP) [2] is on record as “significant ability to prevent fiber formation”. Also, the “rescue / protection of cells from hIAPP toxicity (words)” value in the series on RIN-m cells is given as “significant increase in cell viability; also recorded: rescue living cells from the toxic effects of hIAPP”. For the same molecule, the “aggregation propensity relative to comparator” value in series [3] is reported as “less aggregation-prone than Pramlintide”. For the same molecule, at human IAPP (hIAPP) [4], the “prevention of hIAPP aggregation in the presence of human insulin” value is given as “prevent hIAPP aggregation in the presence of human insulin”.

“ANFLVH (Islet amyloid polypeptide; UniProt P10997 46-51, looked up, fragment) [peptide derived from human IAPP, from Wijesekara et al. 2015]”: the “fasting blood glucose levels and glucose tolerance” value in series [5] was “improve fasting blood glucose levels and glucose tolerance”. In addition, in the series with human IAPP, the “decrease of cytotoxicity (literature)” value was “decrease cytotoxicity” and the “inhibition of amyloid fibril formation (literature)” value is reported as “inhibit amyloid fibril formation”.
